{
  "source": "PubChem BioAssay AID1963825",
  "about": "(Molecular Pharmacology Branch, DTP, NCI, 2024);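 also: luminescence signal used as a surrogate for viable cells; spheroids exposed to drugs for seven days before readout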",
  "assay": "Anticancer human tumor 997537-175-T-J1-PDC patient-derived colon adenocarcinoma cell line growth inhibition [POLQ]",
  "conditions": "997537-175-T-J1-PDC complex spheroid viability, combination with POLQ inhibitors; for IC50: curve of first compound; for viability, T/C: stronger effect = lower value",
  "in_short": "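Complex spheroid viability model combining PDC tumour cells with endothelial (HUVEC) and MSC stromal cells. Novobiocin, ART-558 or RP6685 were tested singly and in combination with standard and investigational anticancer drugs. Each was titrated in half-log steps from near clinical Cmax, or from 10 microM where Cmax was unknown.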",
  "data": [
    {"smiles": "CC(=O)O[C@H]1C(=O)[C@@]2(C)[C@H]([C@H](OC(=O)c3ccccc3)[C@]3(O)C[C@H](OC(=O)[C@H](O)[C@@H](NC(=O)c4ccccc4)c4ccccc4)C(C)=C1C3(C)C)[C@]1(OC(C)=O)CO[C@@H]1C[C@@H]2O", "note": "+ Cc1cccc(N(C)C(=O)C2C(O)CCN2c2nc(C)cc(C(F)(F)F)c2C#N)c1", "values": [
      {"measurement": "IC50", "setting": "second compound 0.0316 µM", "result": "< 9.49", "unit": "nM"},
      {"measurement": "IC50", "setting": "second compound 0.1 µM", "result": "< 9.49", "unit": "nM"},
      {"measurement": "IC50", "setting": "second compound 0.316 µM", "result": 32.2, "unit": "nM"},
      {"measurement": "IC50", "setting": "second compound 1 µM", "result": "< 9.49", "unit": "nM"},
      {"measurement": "IC50", "setting": "second compound 3.16 µM", "result": 20.9, "unit": "nM"},
      {"measurement": "IC50", "setting": "second compound 10 µM", "result": "< 9.49", "unit": "nM"},
      {"measurement": "viability, T/C", "setting": "second compound 0.0316 µM, first compound 0.00949 µM", "result": 56, "unit": "%"},
      {"measurement": "viability, T/C", "setting": "second compound 0.0316 µM, first compound 0.03 µM", "result": 32.5, "unit": "%"},
      {"measurement": "viability, T/C", "setting": "second compound 0.0316 µM, first compound 0.0949 µM", "result": 16.2, "unit": "%"},
      {"measurement": "viability, T/C", "setting": "second compound 0.0316 µM, first compound 0.3 µM", "result": 20.3, "unit": "%"},
      {"measurement": "viability, T/C", "setting": "second compound 0.0316 µM, first compound 0.949 µM", "result": 35.2, "unit": "%"},
      {"measurement": "viability, T/C", "setting": "second compound 0.0316 µM, first compound 3 µM", "result": 41.5, "unit": "%"},
      {"measurement": "viability, T/C", "setting": "second compound 0.1 µM, first compound 0.00949 µM", "result": 53.7, "unit": "%"},
      {"measurement": "viability, T/C", "setting": "second compound 0.1 µM, first compound 0.03 µM", "result": 39, "unit": "%"},
      {"measurement": "viability, T/C", "setting": "second compound 0.1 µM, first compound 0.0949 µM", "result": 45.4, "unit": "%"},
      {"measurement": "viability, T/C", "setting": "second compound 0.1 µM, first compound 0.3 µM", "result": 32.4, "unit": "%"},
      {"measurement": "viability, T/C", "setting": "second compound 0.1 µM, first compound 0.949 µM", "result": 41.5, "unit": "%"},
      {"measurement": "viability, T/C", "setting": "second compound 0.1 µM, first compound 3 µM", "result": 35.5, "unit": "%"},
      {"measurement": "viability, T/C", "setting": "second compound 0.316 µM, first compound 0.00949 µM", "result": 54.1, "unit": "%"},
      {"measurement": "viability, T/C", "setting": "second compound 0.316 µM, first compound 0.03 µM", "result": 51.6, "unit": "%"},
      {"measurement": "viability, T/C", "setting": "second compound 0.316 µM, first compound 0.0949 µM", "result": 30.1, "unit": "%"},
      {"measurement": "viability, T/C", "setting": "second compound 0.316 µM, first compound 0.3 µM", "result": 29.8, "unit": "%"},
      {"measurement": "viability, T/C", "setting": "second compound 0.316 µM, first compound 0.949 µM", "result": 26.2, "unit": "%"},
      {"measurement": "viability, T/C", "setting": "second compound 0.316 µM, first compound 3 µM", "result": 20.3, "unit": "%"},
      {"measurement": "viability, T/C", "setting": "second compound 1 µM, first compound 0.00949 µM", "result": 41, "unit": "%"},
      {"measurement": "viability, T/C", "setting": "second compound 1 µM, first compound 0.03 µM", "result": 32.3, "unit": "%"},
      {"measurement": "viability, T/C", "setting": "second compound 1 µM, first compound 0.0949 µM", "result": 28.3, "unit": "%"},
      {"measurement": "viability, T/C", "setting": "second compound 1 µM, first compound 0.3 µM", "result": 39.7, "unit": "%"},
      {"measurement": "viability, T/C", "setting": "second compound 1 µM, first compound 0.949 µM", "result": 34.3, "unit": "%"},
      {"measurement": "viability, T/C", "setting": "second compound 1 µM, first compound 3 µM", "result": 31.9, "unit": "%"},
      {"measurement": "viability, T/C", "setting": "second compound 3.16 µM, first compound 0.00949 µM", "result": 79.5, "unit": "%"},
      {"measurement": "viability, T/C", "setting": "second compound 3.16 µM, first compound 0.03 µM", "result": 38.5, "unit": "%"},
      {"measurement": "viability, T/C", "setting": "second compound 3.16 µM, first compound 0.0949 µM", "result": 20.8, "unit": "%"},
      {"measurement": "viability, T/C", "setting": "second compound 3.16 µM, first compound 0.3 µM", "result": 40.2, "unit": "%"},
      {"measurement": "viability, T/C", "setting": "second compound 3.16 µM, first compound 0.949 µM", "result": 31.5, "unit": "%"},
      {"measurement": "viability, T/C", "setting": "second compound 3.16 µM, first compound 3 µM", "result": 34.2, "unit": "%"},
      {"measurement": "viability, T/C", "setting": "second compound 10 µM, first compound 0.00949 µM", "result": 48.1, "unit": "%"},
      {"measurement": "viability, T/C", "setting": "second compound 10 µM, first compound 0.03 µM", "result": 38.8, "unit": "%"},
      {"measurement": "viability, T/C", "setting": "second compound 10 µM, first compound 0.0949 µM", "result": 47.5, "unit": "%"},
      {"measurement": "viability, T/C", "setting": "second compound 10 µM, first compound 0.3 µM", "result": 30.6, "unit": "%"},
      {"measurement": "viability, T/C", "setting": "second compound 10 µM, first compound 0.949 µM", "result": 26.2, "unit": "%"},
      {"measurement": "viability, T/C", "setting": "second compound 10 µM, first compound 3 µM", "result": 53.9, "unit": "%"}
    ]}
  ]
}
